# Test results: ChEMBL document CHEMBL1201862, “PubChem BioAssay data set” (2004)
#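 Where inhibition never reached the appropriate level, the endpoint shown equals the highest concentration tested. Otherwise, values were interpolated linearly from a five-concentration, 48-hour dose response in 96-well plates. Abbreviation: GI50, concentration required for 50% inhibition of growth.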 The source made the active and inactive calls. Cut-off read from the data, not from the text of the source: active = GI50 up to about 1.1 µM and inactive = higher.
# Columns and labels:
# Test in all cases: DTP human tumour cell line panel, 48 h
# 786-0 = test system: 786-0
# A498 = test system: A498
# A549 = test system: A549
# ACHN = test system: ACHN
# BT-549 = test system: BT-549
# CAKI-1 = test system: CAKI-1
# CCRF-CEM = test system: CCRF-CEM
# COLO 205 = test system: COLO 205
# DU-145 = test system: DU-145
# EKVX = test system: EKVX
# HCT-15 = test system: HCT-15
# HL-60 = test system: HL-60
# HOP-62 = test system: HOP-62
# HOP-92 = test system: HOP-92
# HT-29 = test system: HT-29
# Hs-578T = test system: Hs-578T
# IGROV-1 = test system: IGROV-1
# K562 = test system: K562
# KM12 = test system: KM12
# LOX IMVI = test system: LOX IMVI
# M14 = test system: M14
# MCF7 = test system: MCF7
# MDA-MB-231 = test system: MDA-MB-231
# MDA-MB-435 = test system: MDA-MB-435
# MDA-N = test system: MDA-N
# MOLT-4 = test system: MOLT-4
# Malme-3M = test system: Malme-3M
# NCI-H23 = test system: NCI-H23
# NCI-H460 = test system: NCI-H460
# NCI-H522 = test system: NCI-H522
# NCI/ADR-RES = test system: NCI/ADR-RES
# OVCAR-3 = test system: OVCAR-3
# OVCAR-4 = test system: OVCAR-4
# OVCAR-5 = test system: OVCAR-5
# OVCAR-8 = test system: OVCAR-8
# PC-3 = test system: PC-3
# RPMI-8226 = test system: RPMI-8226
# RXF 393 = test system: RXF 393
# SF-268 = test system: SF-268
# SF-295 = test system: SF-295
# SF-539 = test system: SF-539
# SK-MEL-28 = test system: SK-MEL-28
# SK-MEL-2 = test system: SK-MEL-2
# SK-MEL-5 = test system: SK-MEL-5
# SK-OV-3 = test system: SK-OV-3
# SN12C = test system: SN12C
# SNB-19 = test system: SNB-19
# SNB-75 = test system: SNB-75
# SR = test system: SR
# SW-620 = test system: SW-620
# T47D = test system: T47D
# TK-10 = test system: TK-10
# U-251 = test system: U-251
# UACC-257 = test system: UACC-257
# UACC-62 = test system: UACC-62
# UO-31 = test system: UO-31
# HCC 2998 = test system: HCC 2998
# HCT-116 = test system: HCT-116
# NCI-H226 = test system: NCI-H226
structure (smiles),measurement,setting,value
COc1c(O)cc2c(c1O)C(=O)/C(=C/c1ccc(O)cc1)CO2,GI50,786-0,30.8 µM (inactive)
same,GI50,A498,40 µM (inactive)
same,GI50,A549,31 µM (inactive)
same,GI50,ACHN,19.8 µM (inactive)
same,GI50,BT-549,32.9 µM (inactive)
same,GI50,CAKI-1,22.2 µM (inactive)
same,GI50,CCRF-CEM,18.1 µM (inactive)
same,GI50,COLO 205,17.6 µM (inactive)
same,GI50,DU-145,27.1 µM (inactive)
same,GI50,EKVX,28.8 µM (inactive)
same,GI50,HCT-15,14.8 µM
same,GI50,HL-60,30.1 µM (inactive)
same,GI50,HOP-62,33.1 µM (inactive)
same,GI50,HOP-92,36.1 µM (inactive)
same,GI50,HT-29,20.1 µM (inactive)
same,GI50,Hs-578T,30.2 µM (inactive)
same,GI50,IGROV-1,24.7 µM (inactive)
same,GI50,K562,28.9 µM (inactive)
same,GI50,KM12,13.6 µM (inactive)
same,GI50,LOX IMVI,21.7 µM (inactive)
same,GI50,M14,28.1 µM (inactive)
same,GI50,MCF7,34.7 µM (inactive)
same,GI50,MDA-MB-231,40.2 µM (inactive)
same,GI50,MDA-MB-435,33.6 µM (inactive)
same,GI50,MDA-N,28.7 µM (inactive)
same,GI50,MOLT-4,36 µM (inactive)
same,GI50,Malme-3M,30.2 µM (inactive)
same,GI50,NCI-H23,26.8 µM (inactive)
same,GI50,NCI-H460,30.1 µM (inactive)
same,GI50,NCI-H522,14.4 µM (inactive)
same,GI50,NCI/ADR-RES,22.9 µM (inactive)
same,GI50,OVCAR-3,27.2 µM (inactive)
same,GI50,OVCAR-4,20.1 µM (inactive)
same,GI50,OVCAR-5,29 µM (inactive)
same,GI50,OVCAR-8,17.9 µM (inactive)
same,GI50,PC-3,43 µM (inactive)
same,GI50,RPMI-8226,9.33 µM (inactive)
same,GI50,RXF 393,33.7 µM (inactive)
same,GI50,SF-268,29.1 µM (inactive)
same,GI50,SF-295,37.7 µM (inactive)
same,GI50,SF-539,20.5 µM (inactive)
same,GI50,SK-MEL-28,17.7 µM (inactive)
same,GI50,SK-MEL-2,27 µM (inactive)
same,GI50,SK-MEL-5,22 µM (inactive)
same,GI50,SK-OV-3,24.7 µM (inactive)
same,GI50,SN12C,23 µM (inactive)
same,GI50,SNB-19,30.8 µM (inactive)
same,GI50,SNB-75,21.2 µM (inactive)
same,GI50,SR,13.5 µM (inactive)
same,GI50,SW-620,26.7 µM (inactive)
same,GI50,T47D,30.8 µM (inactive)
same,GI50,TK-10,35.5 µM (inactive)
same,GI50,U-251,33.7 µM (inactive)
same,GI50,UACC-257,31.9 µM (inactive)
same,GI50,UACC-62,19.2 µM (inactive)
same,GI50,UO-31,23 µM (inactive)
COC(=O)C1=C(O)C(C(=O)OC)C2CC(=O)CC1C2(C)C (centres undefined),GI50,786-0,> 100 µM (inactive)
same,GI50,A498,> 100 µM (inactive)
same,GI50,A549,> 100 µM (inactive)
same,GI50,ACHN,> 100 µM (inactive)
same,GI50,BT-549,> 100 µM (inactive)
same,GI50,CAKI-1,> 100 µM (inactive)
same,GI50,CCRF-CEM,> 100 µM (inactive)
same,GI50,COLO 205,> 100 µM (inactive)
same,GI50,DU-145,> 100 µM (inactive)
same,GI50,EKVX,> 100 µM (inactive)
same,GI50,HCC 2998,> 100 µM (inactive)
same,GI50,HCT-116,> 100 µM (inactive)
same,GI50,HCT-15,> 100 µM
same,GI50,HL-60,> 100 µM (inactive)
same,GI50,HOP-62,> 100 µM (inactive)
same,GI50,HOP-92,> 100 µM (inactive)
same,GI50,HT-29,> 100 µM (inactive)
same,GI50,Hs-578T,11.2 µM (inactive)
same,GI50,IGROV-1,> 100 µM (inactive)
same,GI50,K562,> 100 µM (inactive)
same,GI50,KM12,> 100 µM (inactive)
same,GI50,M14,> 100 µM (inactive)
same,GI50,MCF7,> 100 µM (inactive)
same,GI50,MDA-MB-231,> 100 µM (inactive)
same,GI50,MDA-MB-435,> 100 µM (inactive)
same,GI50,MDA-N,> 100 µM (inactive)
same,GI50,MOLT-4,> 100 µM (inactive)
same,GI50,Malme-3M,> 100 µM (inactive)
same,GI50,NCI-H226,> 100 µM (inactive)
same,GI50,NCI-H23,> 100 µM (inactive)
same,GI50,NCI-H460,> 100 µM (inactive)
same,GI50,NCI-H522,> 100 µM (inactive)
same,GI50,NCI/ADR-RES,> 100 µM (inactive)
same,GI50,OVCAR-3,> 100 µM (inactive)
same,GI50,OVCAR-4,> 100 µM (inactive)
same,GI50,OVCAR-5,> 100 µM (inactive)
same,GI50,OVCAR-8,> 100 µM (inactive)
same,GI50,PC-3,> 100 µM (inactive)
same,GI50,RPMI-8226,> 100 µM (inactive)
same,GI50,RXF 393,> 100 µM (inactive)
same,GI50,SF-268,> 100 µM (inactive)
same,GI50,SF-295,> 100 µM (inactive)
same,GI50,SF-539,> 100 µM (inactive)
same,GI50,SK-MEL-28,> 100 µM (inactive)
same,GI50,SK-MEL-2,> 100 µM (inactive)
same,GI50,SK-MEL-5,> 100 µM (inactive)
same,GI50,SK-OV-3,> 100 µM (inactive)
same,GI50,SN12C,> 100 µM (inactive)
same,GI50,SNB-19,> 100 µM (inactive)
same,GI50,SNB-75,88.9 µM (inactive)
same,GI50,SR,> 100 µM (inactive)
same,GI50,SW-620,> 100 µM (inactive)
same,GI50,T47D,> 100 µM (inactive)
same,GI50,TK-10,> 100 µM (inactive)
same,GI50,U-251,> 100 µM (inactive)
same,GI50,UACC-257,> 100 µM (inactive)
same,GI50,UACC-62,> 100 µM (inactive)
same,GI50,UO-31,> 100 µM (inactive)
